Measurements: US3968129A, “Azidophenol amine compounds and therapeutic compositions” (Boehringer Mannheim G.m.b.H., priority 1974, dated 1976)

Assays:
cardiac β-receptor = assay: Cardiac β-receptor blocking activity: inhibition of isoprenalin-induced heart frequency increase (tachycardia) in wake rabbits; format: in vivo; conditions: wake rabbit; for Blocking of Isoprenalin Tachycardia in wake rabbits: Heartbeat Frequency x±sx: isoprenalin 1 μg/kg i.v. 30 min after infusion; for DE250: interpolated dosage which limits the frequency increase to 250 beats/min
Procedure: (§1) The following tests were carried out to determine the cardiac β-receptor blocking activity and the acute toxicity of certain compounds representative of the invention, as well as of a conventional comparison compound.
The cardiac β-receptor blocking activity of the test compounds was evaluated by determination of the inhibition of isoprenalin-induced heart frequency increase in wake rabbits. This type of inhibition is a typical property of β-receptor blocking bio catalysts.
The tests were carried out on rabbits weighing between 2 to 3.5 kg settled in wooden cages with EKG-electrodes inserted into the hind-quarters s.c. The heart frequency was read via an integrator (15 seconds) as a digital value. The substances to be tested were infused through a small tube to the ear vein of the rabbits over a period of 15 minutes 30 minutes after completion of the infusion, isoprenalin (1 μg/kg) was intravenously injected. The results were set forth in terms of the reduction of the heartbeat increase induced by isoprenalin and a value (DE250) calculated as the dosage required to limit such increase to 250 heart beats/min.

in vivo = conditions: iv; for LD50: mouse, i.v. into tail vein within 5 seconds, dosage at which 50% of the mice die, read-out: Acute Toxicity LD50 Mouse; for therapeutic index (LD50/DE250): ratio of LD50 (mouse i.v.) to DE250 (wake rabbit i.v.)
Procedure: as §1
In another series of tests, the acute toxicity in mice of the test compounds by intravenous administration was determined as a measure of the tolerance (calculated as LD50 = dosage at which 50% of the mice die). The substances were injected, within a time period of 5 seconds, in dissolved form into the tail vein of 5 male and 5 female mice each, in increasing dosages. From the results (percentage of dead animals) at the various dosages, the mean lethal dosage was ascertained graphically or by way of programmed test analysis.
The results of both series of tests are set forth in the table below which contains, in addition, a calculated value expressing the ratio of LD50 : DE250 for each test compound.

SMILES | Blocking of Isoprenalin Tachycardia in wake rabbits: Heartbeat Frequency x±sx (cardiac β-receptor; dosage 0.5 mg/kg i.v.) [Beats/minute] | Blocking of Isoprenalin Tachycardia in wake rabbits: Heartbeat Frequency x±sx (cardiac β-receptor; dosage 1.0 mg/kg i.v.) [Beats/minute] | Blocking of Isoprenalin Tachycardia in wake rabbits: Heartbeat Frequency x±sx (cardiac β-receptor; dosage 2.0 mg/kg i.v.) [Beats/minute] | Blocking of Isoprenalin Tachycardia in wake rabbits: Heartbeat Frequency x±sx (cardiac β-receptor; dosage 5.0 mg/kg i.v.) [Beats/minute] | Blocking of Isoprenalin Tachycardia in wake rabbits: Heartbeat Frequency x±sx (cardiac β-receptor; dosage 10.0 mg/kg i.v.) [Beats/minute] | Blocking of Isoprenalin Tachycardia in wake rabbits: Heartbeat Frequency x±sx (cardiac β-receptor; dosage 20.0 mg/kg i.v.) [Beats/minute] | DE250 (cardiac β-receptor) [mg/kg i.v.] | LD50 (in vivo) [mg/kg] | Blocking of Isoprenalin Tachycardia in wake rabbits: Heartbeat Frequency x±sx (cardiac β-receptor; dosage 0.01 mg/kg i.v.) [Beats/minute] | Blocking of Isoprenalin Tachycardia in wake rabbits: Heartbeat Frequency x±sx (cardiac β-receptor; dosage 0.1 mg/kg i.v.) [Beats/minute] | therapeutic index (LD50/DE250) (in vivo) | Blocking of Isoprenalin Tachycardia in wake rabbits: Heartbeat Frequency x±sx (cardiac β-receptor; dosage printed "10" mg/kg i.v. (Compound 3 line)) [Beats/minute]
CC(=O)Nc1ccc(OCC(O)CNC(C)C)cc1 (stereo not shown) [Comparison Compound A, 4-[2-hydroxy-3-isopropylaminopropoxy]acetanilide, reference compound] | 307± 7 | 264± 9 | 250± 4 | 246± 7 | 217± 4 | 225± 6 | 2.5 | 69 | – | – | – | –
CC(C)NCC(O)COc1ccccc1N=[N+]=[N-] (stereo not shown) [Compound 1, 2-(2-Hydroxy-3-isopropylaminopropoxy)-azidobenzene] | 250± 5 | 236±11 | – | 223± 6 | – | – | 0.3 | 25 | 288± 8 | 252±10 | 80 | –
CC(C)NCC(O)COc1cccc(N=[N+]=[N-])c1 (stereo not shown) [Compound 2, 3-(2-Hydroxy-3-isopropylaminopropoxy)-azidobenzene] | 282± 9 | 258±10 | – | 205± 9 | – | – | 1.3 | 50 | – | – | 40 | –
CC(C)(C)NCC(O)COc1cccc(N=[N+]=[N-])c1 (stereo not shown) [Compound 3, 3-(2-Hydroxy-3-tert.-butylaminopropoxy)-azidobenzene] | 256±10 | – | 222± 6 | 235±10 | – | – | 0.8 | 50 | – | 317±10 | 60 | 244± 8
CC(C)(C)NCC(O)COc1ccccc1N=[N+]=[N-] (stereo not shown) [Compound 4, 2-(2-Hydroxy-3-tert.-butylaminopropoxy)-azidobenzene] | 237± 7 | 246± 6 | – | 245±14 | – | – | 0.5 | 29 | – | 282± 5 | 58 | –
